{"source": "patent US10398781B2", "about": "“Conjugate based systems for controlled drug delivery” (SmartCells, Inc., priority 2009, dated 2019)", "key": {"blood glucose [1]": {"system": "blood glucose", "experiment": "Blood glucose depression profile after subcutaneous injection", "assay_type": "in vivo, fasted normal non-diabetic rats (Male Sprague-Dawley)", "conditions": "sub-Q"}, "[2]": {"experiment": "Accelerated stability testing (AST) aggregation assay", "assay_type": "physicochemical", "conditions": "PBS buffer"}, "blood glucose [3]": {"system": "blood glucose", "experiment": "Glucose lowering after i.v. injection in minipigs with and without a-MM infusion", "assay_type": "in vivo, non-diabetic male Yucatan minipigs", "conditions": "0.1 U/kg i.v.; for overall bioactivity (glucose lowering): minipigs"}, "blood glucose [4]": {"system": "blood glucose", "experiment": "Sub-Q injection in non-diabetic and alloxan-diabetic minipigs", "assay_type": "in vivo, Yucatan minipigs"}, "[5]": {"experiment": "Sugar-dependent i.v. elimination half-life in minipigs", "assay_type": "in vivo, non-diabetic, male miniature swine (Yucatan strain)", "conditions": "pigs, 0.1 U/kg i.v."}, "[6]": {"system": "serum insulin and blood glucose levels", "experiment": "Effect of a-MM co-injected at the local sub-Q injection site", "assay_type": "in vivo, non-diabetic, male SD rats", "conditions": "5 U/kg sub-Q", "method": "In view of the data described in Example 42, we set out to determine whether the alpha-methyl mannose (a-MM) induced increase in serum conjugate concentration and bioactivity was a result of an increased rate of absorption from the subcutaneous injection site. The high affinity TSAT-C6-AETM-2 conjugate I-2 was used for this experiment. First, the conjugate was diluted to a concentration of 5 U/ml (0.2 mg/ml insulin equivalent) using either a buffered saline solution or a buffered saline solution containing 1 M a-MM. Each solution was injected sub-Q at a dose of 5 U/kg into the back of the neck of each of three non-diabetic, male SD rats at time 0 and blood samples were collected via tail vein bleeding at 0 minutes and at 15, 30, 45, 60, 90, 120, 150, 180, 240, and 300 minutes after injection. […] In this experiment, rats that received the a-MM conjugate solution also received an injection of buffered saline solution sub-Q at a separate hind quarter injection site at 15 minutes. Rats that received the saline conjugate solution also received an injection of a-MM solution sub-Q at a separate hind quarter injection site at 15 minutes."}, "[7]": {"system": "serum insulin and blood glucose levels", "experiment": "Effect of IP exogenous saccharide 15 minutes after sub-Q conjugate on PK/PD profile", "assay_type": "in vivo, fasted normal non-diabetic rats (Male Sprague-Dawley)"}, "[8]": {"conditions": "0.25 ml of 20 U equivalent insulin/ml"}, "[9]": {"conditions": "sub-Q, II-2 0.25, 0.50, 1.00 U/kg, RHI 0.063 and 0.125 U/kg"}}}
{"substance": "insulin-glycogen: comparative insulin-oyster glycogen (Type II) conjugate per U.S. Patent Application Publication No. 20070099820", "values": [{"measurement": "glucose depression profile / glucose lowering response", "setting": "blood glucose [1]; 2.5-5 U/kg", "value": "lower glucose levels much more rapidly and to a greater extent"}]}
{"substance": "insulin-dextran: comparative insulin-dextran (MW~70K) conjugate made by CNBr coupling per U.S. Patent Publication No. 20040202719", "values": [{"measurement": "duration of serum glucose depression post injection", "setting": "blood glucose [1]; [8]", "value": "at least five hours"}, {"measurement": "time to reach the glucose nadir (Tnadir)", "setting": "blood glucose [1]; [8]", "value": "about 3 hours"}]}
{"substance": "I-16: human insulin conjugated at B1 to TSPE framework with three AEM ligands", "values": [{"measurement": "AST aggregation stability compared with RHI", "setting": "[2]", "value": "greatly enhanced stability over pharmaceutical grade RHI"}]}
{"substance": "II-2: A1,B29-disubstituted insulin, TSAT-C6 frameworks, four AETM ligands", "values": [{"measurement": "area over the glucose lowering curve in the presence of a-MM vs. absence of sugar", "setting": "blood glucose [3]", "value": "approximately 2.6 ×"}, {"measurement": "a-MM induced bioactivity", "setting": "blood glucose [3]; a-MM infusion 25% w/v 80 ml/h", "value": "increased the a-MM induced bioactivity"}, {"measurement": "overall bioactivity (glucose lowering)", "setting": "blood glucose [3]", "value": "reduced overall bioactivity"}, {"measurement": "duration of hypoglycemia-free glucose control in diabetic minipigs", "setting": "blood glucose [4]; single injection of approximately 0.5 U/kg", "value": "6 to 8", "unit": "h"}, {"measurement": "blood glucose in alloxan-diabetic, hyperglycemic minipigs", "setting": "blood glucose [4]; [9]", "value": "significant dose-dependent reduction in blood glucose levels"}, {"measurement": "hypoglycemia / glucose-lowering in non-diabetic minipigs", "setting": "blood glucose [4]; [9]", "value": "absolutely no hypoglycemia or signs of glucose-lowering"}, {"measurement": "increase in t1/2 in the presence of a-MM", "setting": "[5]", "value": "~10", "unit": "fold"}]}
{"substance": "I-12: human insulin conjugated at A1 to TSAT-C6 framework with two AETM ligands", "values": [{"measurement": "overall bioactivity (glucose lowering)", "setting": "blood glucose [3]", "value": "slightly more effective in lowering glucose than conjugate I-6"}]}
{"substance": "I-2: human insulin conjugated at B1 to TSAT-C6 framework with two AETM ligands", "values": [{"measurement": "serum insulin and blood glucose with 1M a-MM co-injected vs. buffered saline", "setting": "[6]", "value": "the serum insulin levels do not increase and the blood glucose levels do not decrease"}, {"measurement": "effect of IP L-fucose on serum insulin profile", "setting": "[7]; L-fucose IP 15 minutes after sub-Q injection", "value": "alpha-methyl mannose and L-fucose appear to exhibit the same kind of effect"}, {"measurement": "change in PK/PD profile from IP injection of alpha-methyl mannose vs. saline", "setting": "[7]; a-MM IP 15 minutes after sub-Q injection", "value": "very significant (p<0.05)"}, {"measurement": "effect of IP galactose on serum insulin profile", "setting": "[7]; galactose IP 15 minutes after sub-Q injection", "value": "no effect as compared to saline"}, {"measurement": "effect of IP glucose on serum insulin profile", "setting": "[7]; glucose IP 15 minutes after sub-Q injection", "value": "small effect"}]}
